One data set addresses T1, human GalR1 (Homo sapiens, UniProt P47211).
T1 sequence (P47211 1-349): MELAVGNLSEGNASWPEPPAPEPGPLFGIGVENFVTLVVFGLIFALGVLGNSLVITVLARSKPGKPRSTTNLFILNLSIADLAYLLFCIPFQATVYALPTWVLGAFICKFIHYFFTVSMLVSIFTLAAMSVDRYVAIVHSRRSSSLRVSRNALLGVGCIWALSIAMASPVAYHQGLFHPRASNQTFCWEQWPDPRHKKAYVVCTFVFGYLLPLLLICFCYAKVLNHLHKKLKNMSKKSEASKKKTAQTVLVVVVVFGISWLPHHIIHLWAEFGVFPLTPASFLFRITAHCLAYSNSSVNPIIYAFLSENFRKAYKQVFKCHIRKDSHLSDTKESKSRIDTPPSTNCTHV
The conditions noted are these: antagonists, literature reports; cited from earlier work.

A further data set has as its system galanin binding sites. The data set can be described thus: autoradiographic [125I]-galanin binding assay on rat spinal cord sections. The conditions noted are these: rat spinal cord sections L4, L5; galnon at 1, 3 and 5 μM. As for the experimental part:
Rats were decapitated, the spinal cord lumbar segments L4 and L5 were dissected out, rapidly frozen, cut in a cryostat and processed for the autoradiographic ligand binding assay of Young and Kuhar^13, as described previously^14. Galnon was added at 1, 3 and 5 μM concentration. The sections were processed in a BAS3000 Bio-Imagine Analyzer (Fuji) and quantified and then exposed to Hyperfilm-Max X-ray film (Arnersham Pharmacia Biotech).

Data set [1] deals with self sustaining status epilepticus. The data set can be described thus: self sustaining status epilepticus (SSSE) induced by PPS in rats. In kind it is in vivo. The method, then: The effects of intrahippocampal galnon administration was evaluated in rats. SSSE consisted of recurrent limbic seizures of varying intensity (stages 1-5), which lasted for 12-18 h after PPS was discontinued. Behavioral seizures were accompanied by high-frequency (13+Hz) and amplitude (1+mV) discharges with the duration of individual events between 30 s and 3 min. Between the seizures, ictal spikes with the amplitude of 0.8 mV and more and frequency of 3 Hz and less were continuously generated (spike frequency of 3 Hz and more was recognized as a seizure)^5.

For a further data set, the system named is PTZ-induced seizures. Kind of data set: PTZ-induced seizures in mice. As for the experimental part:
The experiments were performed on C57B1 male mice (weight 20-30 g). Animals to be treated with galanin, or M35 were anaesthetized with ketamine (100 mg/kg i.p.) and xylazine (15 mg/kg i.p.) and stereotaxically implanted i.c.v. with guide cannulae (0.6 mm internal diameter). Postoperative recovery was 3-5 days. Galanin, or M35 were injected into the lateral brain ventricle of freely moving mice by means of Hamilton microsyringe in the amount 0.5 nmol, in 0.5 μl, at a rate […]. Control animals were treated with saline.
Galnon was dissolved in the 50% DMSO in saline and administered i.p. in a dose of 2 mg/kg […] prior to PTZ injection (when the effect of galnon alone was studied) or […] after M35 injection (in co-administration studies). Control animals were treated with 50% DM50 in saline.
Seizures were induced by i.p. injection of PTZ (Research Biochemicals, Natick, Massachusetts) in a dose of 40 mg/kg (when studying the effects of galanin only, or galnon only) or 30 mg/kg (when studying the effect of M35 and galnon+M35). The animals were placed in individual Plexiglas cages and videotaped for 15 min after PTZ administration. Seizures were analyzed off-line by a unbiased investigator and quantified using the following scale: 0: no motor seizures; 1: staring, mouth, or facial movements; 2: head nodding or isolated twitches; 3: unilateral bilateral forelimb clonus; 4: rearing; 5: rearing and falling; 6: tonic extension of hind limbs or death. The latency of each behavioral seizure type and the highest seizure score were recorded. […] Statistical methods used: t-test (latency) and Mann-Whitney (seizure score).

Another data set addresses galanin receptors. The data set can be described thus: [125I]-galanin displacement, equilibrium binding in rat ventral hippocampal membranes. The settings on record: membranes from rat ventral hippocampus. As for the experimental part: (§1) The mixtures of ligands and individual compounds were screened to displace [^125I]-galanin in equilibrium binding assay using membrane preparations from rat hippocampi, rich in galanin binding sites as described in detail previously^11. Effect of galnon on basal and forskolin-stimulated cAMP production were performed essentially as described by Valkna et al.^12 in membranes from rat ventral hippocampi.

The target in the next data set is adenylate cyclase. Kind of data set: adenylate cyclase assay (basal and forskolin-stimulated cAMP production) in membranes from rat ventral hippocampi. In kind it is biochemical. The method, then:
as §1

The mark [2] stands for this setting: equimolar galnon into hippocampus before M35 5 nmol, 7 min PPS.
[3] abbreviates: galnon 1 nmol, control rats injected with scrambled PNA.

“Also recorded” adds a separate entry of the source. Like-named read-outs stand apart in the source and are kept apart here. Non-standard residues stand in square brackets, D forms with d. Residues, ends and D or L forms follow the SMILES beside them. *: point of attachment. Fmoc = O=C(OCC1c2ccccc2-c2ccccc21)*; AMC = Cc1cc(=O)oc2cc(N*)ccc12; Cha = N[CH](CC1CCCCC1)C(=O)O

On to `COC(=O)C1=C[C@@H](O)[C@@H](O)[C@H](O)[C@@H]1Oc1c(Cl)c(C)c(Cl)c2c1C(=O)[C@@]1(O2)C(OC)=CC(=O)C=C1C(=O)OC` [Sch 202596], for which the IC50 on human GalR1 is 1400 nM.
On to `Cc1cc(=O)oc2cc(NC(=O)C(CCCCN)NC(=O)C(CC3CCCCC3)NC(=O)OCC3c4ccccc4-c4ccccc43)ccc12` (stereo not drawn) [galnon, 1-[5-amino-1-(4-methyl-2-oxo-2H-chromen-7-ylcarbamoyl)-pentylcarbamoyl]-2-cyclohexyl-ethyl-carbamic acid 9H-fluoren-9-ylmethyl ester] (Fmoc-[Cha]-Lys-{AMC}; configuration not given here), for which, in the data set with galanin binding sites, the “displacement of [125I]-galanin, autoradiographic signal” value was “significant increase in binding as compared to controls was only seen at the concentration of 5 μM”. Also, the “anticonvulsant effect in the presence of GalR antagonist M35” value in data set [1] (M35 0.5 nmol pretreatment) is recorded as “attenuated; also recorded: abolished”. Moreover, in data set [1] (setting [2]), the “duration of SSSE” value was determined as 37 ± 8 min and the total seizure time came to 13 ± 4 min. Besides, in data set [1] (galnon 1 nmol, PNA1-pretreated animals (GalR1 down-regulated)), the “effect on self-sustaining seizures” value is on record as “no effect”. Also, in data set [1] (setting [3]), the “reduction of duration of SSSE” value turned out to be 7 fold and the “reduction of total seizure time” value is listed as 9 fold. In addition, the “effect on SSSE” value in data set [1] (intrahippocampal injection 10 min after the end of PPS) is recorded as “attenuated SSSE in a dose dependent manner”. Further, the SSSE duration in data set [1] (intrahippocampal, maximal dose 5 nmol, 30 min PPS) stood at 28 ± 8 min. The “effect on seizure-facilitating effect of M35” value with PTZ-induced seizures (M35 i.c.v. co-administered with galnon i.p., PTZ 30 mg/kg) is “completely abolished”. In the data set with PTZ-induced seizures (PTZ 40 mg/kg i.p., 2 mg/kg i.p. 15 min prior to PTZ, scale 0-6), this compound displayed a maximal seizure score of 1.45. The “anticonvulsant effect compared with galanin i.c.v. 0.5 nmol” value in the data set with PTZ-induced seizures (PTZ 40 mg/kg, galnon 2 mg/kg i.p.) was “comparable to that of galanin”. Also, the behavioral side effects result with PTZ-induced seizures (mice, galnon 2 mg/kg i.p.) is given as “No obvious behavioral side effects”. On galanin receptors, this compound had a Ki of 4.8 µM. Moreover, the 50% effective concentration (EC50) at adenylate cyclase (basal, read-out: EC50, M of inhibition of adenylate cyclase activity (basal)) turned out to be 8 µM. In addition, at adenylate cyclase (forskolin stimulated, read-out: EC50, M of inhibition of adenylate cyclase activity (forskolin stimulated)), the concentration giving a half-maximal response (EC50) came to 10 µM.
For the compound dithiipin-1,1,4,4-tetroxide, the IC50 at human GalR1 was 170 nM.

The values above are taken from US6747060B2, “Non-natural galanin receptor ligands” (Kemia, Inc., priority 2002, dated 2004).
